Experimental data: patent US20190086390A1, “INDIRECT ASSESSMENT OF INSULIN RELEASE IN A CELL” (Board of Supervisors of Louisiana State University and …, priority 2016, published 2019)
Entries after “also recorded” stand apart in the source; their conditions may differ.

Tests used:
Type in all cases: cell-based, rat
iNOS = iNOS mRNA (RT-PCR) and protein (immunoblot) abundance in 832/13 cells; settings: 832/13 cells exposed to IL-1β
From the text: RNA isolation from cell lines and rat islets, cDNA synthesis, and analysis of real-time RT-PCR data has been described in detail previously (12). For all transcripts studied, the relative mRNA abundance was normalized to that of the housekeeping gene ribosomal S9. Primers used to detect transcript levels of ribosomal S9, iNOS, IL-1, and Nkx6.1 were designed using Primer3Plus software and are available upon request.
(§1) Cell lysis and extraction of cytoplasmic and nuclear protein fractions was performed using the NE-PER kit (Thermo Fisher Scientific) according to the manufacturer's directions. The protein concentration of the lysate was determined using the bicinchoninic acid assay (Thermo Fisher Scientific), using BSA as the standard. SDS-PAGE, transfer to polyvi-nylidene difluoride membranes, membrane blocking before antibody incubation, and downstream subsequent detection using a ChemiDoc imaging system (Bio-Rad) have been described previously (16). Antibodies detecting β-actin or tubulin were used as loading controls. Antibodies used were from the following sources: iNOS (Santa Cruz Biotechnology), (3-actin (Cell Signaling Technology), Ikα: (Santa Cruz Biotechnology), tubulin (Cell Signaling Technology), and Pdx-1 (Cell Signaling Technology). The antibody recognizing Nkx6.1 has been described (34). Immunoblot images were quantified using Image Lab software (Bio-Rad).

CCL20 = CCL20 secretion into media of 832/13 cells, ELISA; settings: glucose 2, 4, 8 or 16 mM; IL-1β 6 h
Protocol: (§2) 832/13 cells were grown in 12-well plates and treated as indicated. RPMI was supplemented with 0.3% BSA, and media were collected at the indicated time points. In addition, the cells were lysed using M-PER lysis reagent (Thermo Fisher Scientific) to quantify total intracellular protein content. CCL2 and CCL20 secretion into the media was measured by CCL2 Quantikine ELISA kit (R & D Systems, Minneapolis, Minn.) and CCL20 DuoSet ELISA kit (R & D Systems) according to the manufacturer's protocol. ELISA data were normalized to total protein to account for any differences in cell number between treatment groups.

[1] = system: voltage-gated Ca^2+ channels; assay: Whole cell voltage clamp recordings; settings: n=25; for cell size (whole cell capacitance) vs control: IL-1β pretreatment
From the text: Cell culture dishes were mounted on the stage of an Olympus K70 inverted microscope. A reference Ag/AgCl pellet served to ground the bath. Patch electrodes were pulled from thick-walled borosilicate glass with a filament (outer diameter 1.5 mm; inner diameter: 0.86 mm; Sutter Instruments, Novato, Calif.) using a Haming-Brown Micropipette Puller (Sutter Instruments). Electrode resistance values ranged from 4 to 7 Mfl. Ruptured patch, whole cell voltage clamp recordings were made using an Axopatch ID-patch clamp amplifier (Molecular Devices, Sunnyvale, Calif.). Data were recorded using pClamp 10.0 software (Molecular Devices). Unless otherwise indicated, all reagents were purchased from Sigma-Aldrich (St. Louis, Mo.). External solutions consisted of the following (in mM): 116.7 NaCl, 20.0 TEAC1, 3.0 CaCl2, 0.4 MgCl2, 4.0 glucose, and 10.0 HEPES. Voltage clamp experiments were performed in the ruptured patch configuration using the following internal solution (in mM): 100.00 CsAc, 10.0 CsCl, 2.0 MgCl2, 0.1 CaCl2, and 10.0 HEPES. Also included was an ATP regeneration system to preserve Ca^2+ currents [3.0 ATP (dipotassium), 1.0 ATP (disodium), 20.0 phosphocreatine, 2.0 GTP, and 50 U/ml creatine phos-phokinase]. Cesium was used as a substitute for K^+ to minimize currents through voltage-gated K^+ channels. Tetrodotoxin (300 nM; Alomone Laboratories, Jerusalem, Israel) was included in the external solution to block voltage-gated Na^+ currents. The liquid junction potential error for these solutions was estimated to be −13 mV (pClamp). Solutions were adjusted to pH 7.4 with NaOH for external solutions and with CsOH for internal solutions. A pressurized gravity flow perfusion system (1.5-2 mi/min) was used to deliver the external solutions (AutoMate Scientific, Berkeley, Calif.).

832/13 cells [2] = assay: MTS dye reduction assay; settings: 1 ng/ml IL-1β, 18 h
Protocol: (§3) Nitrite in the cell culture media was measured as an index of NO production using the Griess assay kit (Promega, Madison, Wis.), whereas cellular reduction of the 3-(4,5-dimethylthiazol-2-yl)-5-(3-carboxymethoxyphenyl)-2-(4-sulfophe-nyl)-2H-tetrazohum, inner salt (MTS) dye was determined using the MTS 1 solution kit (Promega) according to the manufacturer's protocol.

832/13 cells [3] = assay: Nitrite accumulation in culture media, Griess assay; settings: IL-1β
Protocol: as §3

Pdx-1 = Pdx-1 protein abundance, immunoblot; settings: 832/13 cells, IL-1β 4 h
Protocol: as §1

CCL2 = CCL2 secretion into media of 832/13 cells, ELISA
Protocol: as §2

832/13 cells [4] = assay: Nitric oxide by EPR spectroscopy with (MGD)2Fe2+ spin trap; settings: 1 ng/ml IL-1β 18 h
Protocol: The spin trap Af-methyl-d-glucamine dithiocarbamate-iron complex [(MGD)2-Fe^2+] was prepared fresh in each experiment by making stock solutions of 500 mM MGD and 100 mM Fe^2+ (from FeS04.7 H20) in ultrapure water under anaerobic conditions. A final concentration of 25 mM MGD and 5 mM Fe^2+ was introduced onto cells in culture using serum-free media with a 30-min incubation period. Supernatants were then collected for the measurements of the (MGD)2-iron-NO complex. All electron paramagnetic resonance (EPR) measurements were carried out in a quartz flat cell at room temperature. Samples were transferred directly into the flat cell, which was then placed into the cavity of a Bruker EMX Plus spectroscope. Typical instrumental conditions were as follows: 20 mW of microwave power, 5.0-G modulation amplitude, 1×10^5 gain, 0.163-s time constant, and 80-G scan range. Quantitation was carried out by measuring and comparing the first peak heights on the spectra.

## IL-1β: proinflammatory cytokine purchased from Thermo Fisher Scientific, used at 1 ng/ml
iNOS
  iNOS expression (transcript and protein): rapidly induced; also recorded: accumulates; also recorded: robust iNOS abundance
CCL20
  IL-1β-induced secretion of CCL20 over a range of glucose concentrations: not different
[1]
  cell size (whole cell capacitance) vs control: no effect on cell size
[1]; listed as IL-I1β
  cell size (whole cell capacitance) vs control: not significantly different
[1]; IL-1β-treated 832/13 cells, step to −3 mV
  voltage-gated Ca^2+ current density vs control: not significantly different; also recorded: No significant difference
832/13 cells [2]
  decrease in reduction of the MTS dye: 38%
832/13 cells [3]; 6 h
  increase in nitrite accrual: 5.5 fold
832/13 cells [3]; time not given, associated with 54% diminution in GSIS
  increase in nitrite: 13 fold
Pdx-1
  amount of Pdx-1 protein: unchanged
CCL2; 832/13 cells, 1 ng/ml IL-1β
  expression and secretion of CCL2 in response to IL-1β: markedly elevated; also recorded: strongly induced
CCL2; IL-1β
  time to chemokine secretion after cellular exposure: 3 to 6 h
CCL2; glucose 2, 4, 8 or 16 mM, IL-1β 6 h
  IL-1β-induced secretion of CCL2 over a range of glucose concentrations: not different
832/13 cells [4]
  nitric oxide production in response to IL-1β: robust production of nitric oxide
